Consider 1 compound from patent US20250212902A1, “METHOD AND COMPOSITION FOR IMPROVEMENT OF AGRICULTURAL PRODUCE” (UPL CORPORATION LIMITED, priority 2022, published 2025).

One assay has as its system grape. Description: Post-harvest bunch weight in grape (Example 7). The assay is classed as in vivo. To be noted: 19 days after harvest, Example 7 Trial 2. The method, then: (§1) 10 applications […] were performed with an interval of 3 days with the 1st application being at inflorescence stage (BBCH 53). Severity of disease was evaluated in at least 20 leaves/plot, prior evaluation was performed before the first application, at 3 days after each application and at 7 and 10 days after the last application. Phytotoxicity (0 to 100%) was evaluated before each spray and at 3 days after each application. Post-harvest bunch weight was evaluated at 19 days after harvest. Control of powdery mildew was recorded as % control. Yield was evaluated as Kg/ha. Post-harvest bunch weight was recorded as g/bunch. […] 10 applications […] were performed with an interval of 3 days with the 1st application being at inflorescence stage (BBCH 53). Severity of disease was evaluated in at least 20 leaves/plot, prior evaluation was performed before the first application, at 3 days after each application and at 7 and 10 days after the last application. Phytotoxicity (0 to 100%) was evaluated before each spray and at 3 days after each application. Post-harvest bunch weight was evaluated at 19 days after harvest. Control of powdery mildew was recorded as % control. Post-harvest bunch weight was recorded as g/bunch.

The test system of assay [1] is powdery mildew (Uncinula necator). The assay can be described thus: Control of powdery mildew in grape. Format: in vivo. The conditions noted are these: Example 7 Trial 2, 10 applications, 3 day interval. The method, then:
as §1

For the compound `O=C([O-])O.[K+]` [Potassium bicarbonate, potassium bicarbonate], the “Post-harvest bunch weight (g/bunch)” value in the assay on grape amounted to 420.3 g/bunch. For the same compound, in assay [1], the “% Control of Uncinula necator” value amounted to 67.7%.
